According to ChEMBL document CHEMBL3507680, “University of Dundee, Gates Library screen for HepG2 cell viability”:

Assay: Human HepG2 cell viability assay in 384 well format
Assay type: toxicity, cell-based
Set-up: dose 125 nL, time 70.5 hour; cytotoxicity at 70.5 h: concentration not given beside the values
Settings: HepG2 cells, read-out: Inhibition

Row | Compound | cytotoxicity at 70.5 h
1 | Cc1cc(CN2CCC(CNS(=O)(=O)c3ccc(C)s3)CC2)c(C)o1 | -5.87%
2 | O=C(Oc1ccccc1)N1CCC(CNS(=O)(=O)c2cccnc2)CC1 | 20.9%
3 | COc1ccc(S(=O)(=O)NCCCc2ccc(N(C)C)cc2)cc1Cl | -3.09%
4 | O=C(Cc1ccc(F)cc1)NCC1CCN(Cc2ccsc2)CC1 | -3.3%
5 | CCSc1ccccc1C(=O)NCC1CCN(Cc2ccsc2)CC1 | 2.8%
6 | Cc1nnsc1C(=O)NCC1CCN(c2ccccn2)CC1 | -8.36%
7 | COC(=O)N1CCC(CNC(=O)C2CC2)CC1 | -18.1%
8 | O=C(CC1CCCC1)NCCS(=O)(=O)N1CCN(c2ncccn2)CC1 | -11%
9 | Cc1nnc2ccc(OCCNS(C)(=O)=O)nn12 | -0.867%
10 | Cc1ccc(S(=O)(=O)NCCOc2ccc3nnc(C)n3n2)s1 | -14.5%
11 | CCc1nnc2ccc(N3CCN(S(=O)(=O)c4ccc(Cl)s4)CC3)nn12 | -19%
12 | CCc1nnc2ccc(N3CCN(S(=O)(=O)c4ccc(C)s4)CC3)nn12 | -21.3%
13 | CN(C)C(CNS(=O)(=O)c1cc(F)ccc1F)c1cccn1C (centres undefined) | -11.3%
14 | CCc1cc(=O)[nH]c(-n2nc(C3CC3)cc2NC(=O)C2CC2)n1 | 42.7%
15 | Cc1nc(-n2nc(C3CC3)cc2NC(=O)C(C)C)[nH]c(=O)c1C | 40.2%
16 | Cc1cc(=O)[nH]c(-n2nc(C)c(CCC(=O)NCc3cccs3)c2C)n1 | -0.337%
17 | CCN(CC)CCSc1nnc(N2CCN(c3ccc(F)cc3)CC2)s1 | -5.54%
18 | CCSc1nnc(N2CCN(c3ccccc3)CC2)s1 | 0.78%
19 | CCN(CC)CCSc1nnc(N2CCN(c3ccccc3)CC2)s1 | -2.44%
20 | Cc1nnc(C2CCN(C(=O)c3ccc(-n4cccc4)cc3)CC2)s1 | 28%
21 | COc1nn(C)cc1C(=O)N1CCC(c2nnc(C(C)C)o2)CC1 | -4.14%
22 | CC(C)n1cc(C(=O)NCCN(C)C)c2n[nH]c(=O)c-2c1 | 1.2%
23 | COCCCNC(=O)c1cn(C(C)C)cc2c(=O)[nH]nc1-2 | -9.87%

Row | Compound | cytotoxicity at 70.5 h
24 | COCC(C)NC(=O)c1cn(C(C)C)cc2c(=O)[nH]nc1-2 (centres undefined) | -6.59%
25 | CCCc1noc(C2CC(=O)N(Cc3ccccc3)C2)n1 (centres undefined) | -8.97%
26 | Cc1nn(C2CCS(=O)(=O)C2)c(C)c1CC(=O)NCc1ccccc1Cl (centres undefined) | -4.52%
27 | O=C(Nc1nc2c(s1)CCC2)NC1CCCC1 | -9.48%
28 | COCCc1nnc(NC(=O)CSCc2ccccc2)o1 | 1.82%
29 | Cc1nccn1CC1CCN(C(=O)Cc2ccccc2)CC1 | 24.1%
30 | O=S(=O)(C1CC1)N1CCC(Cn2cccn2)CC1 | -7.23%
31 | CCNC(=O)N1CCN(c2nc3ccccc3n2C)CC1 | -3.78%
32 | COCC(=O)N1CCC(c2ccc(OC)cc2)C1 (centres undefined) | -16.3%
33 | COc1nn(C)cc1C(=O)N1CCC(c2ccccc2)C1 (centres undefined) | -1.63%
34 | CN1CCC(CNC(=O)NCc2ccc(F)cc2)CC1 | -1.23%
35 | COc1ccccc1S(=O)(=O)NCC(c1cccn1C)N(C)C (centres undefined) | -2.15%
36 | Cn1cccc1CN(C(=O)Cc1cccs1)C1CC1 | -2.78%
37 | Cn1cccc1C(O)CNC(=O)COc1ccccc1F (centres undefined) | -8.88%
38 | Cn1cccc1C(O)CNC(=O)c1ccc2nsnc2c1 (centres undefined) | -14.5%
39 | COc1cc(C)c(C)cc1S(=O)(=O)NCC(O)c1cccn1C (centres undefined) | -5.03%
40 | COc1ccc(S(=O)(=O)NCC(O)c2sccc2C)cc1C (centres undefined) | -3.59%
41 | O=C(Cc1ccc(F)cc1)NCC(O)(c1cccs1)C1CC1 (centres undefined) | 13.2%
42 | O=C(NCC(O)(c1cccs1)C1CC1)NC1CCCCC1 (centres undefined) | 10.9%
43 | Cc1noc(C)c1S(=O)(=O)NCC(C)(O)c1ccc2c(c1)OCO2 (centres undefined) | -3.11%
44 | COc1ccc(CC(C)(O)CNC(=O)Cc2ccc(F)cc2)cc1 (centres undefined) | -21%
45 | CC(O)(CCc1ccccc1)CNC(=O)c1cccs1 (centres undefined) | -3.94%
46 | COc1ccc(C(=O)NCC(C)(O)CCc2ccccc2)cc1 (centres undefined) | 3.78%

Row | Compound | cytotoxicity at 70.5 h
47 | O=C(NCC1(O)CCc2ccccc21)Nc1ccc2c(c1)OCO2 (centres undefined) | -3.18%
48 | Cc1ccc(NC(=O)NCC2(O)CCCC2)cc1C | -1.58%
49 | COc1ccc(S(=O)(=O)NCCC(O)c2ccccc2)c(C)c1 (centres undefined) | -8.64%
50 | CCOc1ccc(NC(=O)NCC(C)(O)c2cccs2)cc1 (centres undefined) | -8.04%
51 | O=C(NCCc1ccccc1)NCC(O)c1cccs1 (centres undefined) | -14%
52 | CC(O)(CNC(=O)c1c(F)cccc1Cl)c1ccco1 (centres undefined) | 29.8%
53 | CCCS(=O)(=O)N1CCN(CC(F)(F)F)CC1 | -5.82%
54 | Cc1nc(C)c(CC(=O)NCc2ccc(F)cc2F)s1 | -11.3%
55 | Cc1ccnc(OCC(=O)N2CCCC2)n1 | -0.226%
56 | COc1ccc(N2CCN(C(=O)COc3nccc(C)n3)CC2)cc1 | -3.87%
57 | CN(CC(=O)NCC(F)(F)F)C(=O)c1ccc(=O)[nH]c1 | -8.21%
58 | Cc1cc(NC(=O)Cn2cnc(-c3cccs3)cc2=O)sn1 | 11.1%
59 | COc1nn(C)cc1C(=O)NCC(=O)NCc1cccnc1 | -2.92%
60 | O=S(=O)(c1cccnc1)N1CCN(CC(O)c2cccs2)CC1 (centres undefined) | -1.48%
61 | CCS(=O)(=O)N1CC(c2nc(-c3ccncc3)no2)C1 | -2.55%
62 | O=C(c1ccccn1)N1CC[C@H]2C(=O)N(c3ccsc3)CCO[C@H]2C1 | -15.7%
63 | COc1cc(N2CCc3ncnc(-c4ccoc4)c3CC2)ncn1 | -7.42%
64 | CNC(=O)[C@H]1CC[C@@H]2[C@@H](CCN2c2ncccn2)O1 | 3.25%
65 | Cc1cc(CN2C[C@H]3CCC[C@@]3(COCC(=O)N3CCCC3)C2)no1 | -4.89%
66 | CNC(=O)N1CCN(C(=O)C(C)C)CC2(CC(=O)N(C)C2)C1 (centres undefined) | -5.77%
67 | Cn1cccc1C(=O)N1CCC2(CC1)CCN2S(C)(=O)=O | -4.8%
68 | Cn1cccc1C(=O)N1CCC2(CCCN2S(C)(=O)=O)CC1 | -8.2%
69 | Cc1oncc1C(=O)N1CC[C@H]2CO[C@H](CN3CCCC3)[C@H]2C1 | -7.95%

Row | Compound | cytotoxicity at 70.5 h
70 | COc1cc(N2CC[C@H]3OCC[C@@]3(COc3nccc(C)n3)C2)ncn1 | -17.3%
71 | CCN1CC2(CC1=O)CN(C(=O)C(C)C)CCN(S(=O)(=O)CC)C2 (centres undefined) | -4.9%
72 | CN(C)C(=O)N1CC2(CCN(S(=O)(=O)C3CC3)CC2)c2ccccc21 | 0.848%
73 | Cc1nc(C)c2c(n1)CCN(Cc1ccsc1)CC2 | -0.781%
74 | O=C(Cc1cccs1)N1CCC2(CCCN(CC3CCOCC3)C2)C1 (centres undefined) | -6.08%
75 | Cc1ncsc1C(=O)N(Cc1cccs1)C1CC1 | -16.1%
76 | CCc1nc2n(n1)CC(NCc1cnn(-c3ccccc3)n1)CC2 (centres undefined) | -9.79%
77 | c1ncn(CC2CCCN(Cc3nnc(C4CC4)o3)C2)n1 (centres undefined) | 11.5%
78 | COc1ncccc1CNC(=O)c1cnccn1 | -12.4%
79 | COc1ncccc1CNC(=O)c1cnc(C)cn1 | -3.16%
80 | CCC(NC(=O)c1ccoc1)c1ccccc1OCC(=O)N1CCCC1 (centres undefined) | -3.93%
81 | Cc1ccccc1C1(C(=O)NCCN(C(C)C)C(C)C)CCOCC1 | -10%
82 | O=C(NCCN1CCCC1)C1(c2ccc(Cl)cc2)CCOCC1 | -3%
83 | Cc1ccc(NC(=O)C2CSCN2C(=O)c2cnsn2)c(C)c1 (centres undefined) | -6.91%
84 | Cc1ccc(NC(=O)C2CSCN2C(=O)c2ccncc2)c(C)c1 (centres undefined) | -4.2%
85 | CC(C)c1ccc(OCCNC(=O)N2CCS(=O)(=O)CC2)cc1 | -2.35%
86 | Cc1cnn(C2CCCN(C(=O)c3ccccc3-n3cnnn3)C2)c1 (centres undefined) | -3.2%
87 | Cc1ccc(O)c(C(=O)N2CCOCC2c2c(C)n[nH]c2C)c1 (centres undefined) | -1.53%
88 | CCN(CCCNCc1c(C)nn(C)c1N(C)C)S(C)(=O)=O | 4.83%
89 | O=C(CCOc1ccccc1F)N1CCCC(n2cncn2)C1 (centres undefined) | 6.03%
90 | Cc1ccccc1OCCCC(=O)N1CCCC(n2cncn2)C1 (centres undefined) | 13%
91 | Cn1ccnc1N1CCN(C(=O)Cc2ccc(Cl)cc2)CC1 | -1.94%
92 | Cc1cc(C(=O)N2CCN(C)CC2)nn1CC(=O)NCc1ccccn1 | -8.07%

Row | Compound | cytotoxicity at 70.5 h
93 | Cc1cc(C(=O)NCCN2CCN(S(C)(=O)=O)CC2)no1 | -10.9%
94 | CCCc1nnsc1C(=O)N1CCN(CC(C)O)CC1 (centres undefined) | -1.92%
95 | O=C(NCc1ccc(Cl)cc1)N1CCN(CC(O)C2CC2)CC1 (centres undefined) | -8.1%
96 | O=C(NCc1ccc(F)cc1)N1CCN(CC(O)C2CC2)CC1 (centres undefined) | -2.01%
97 | OC(CN1CCN(Cc2cc(F)ccc2F)CC1)C1CC1 (centres undefined) | 0.724%
98 | OC(CN1CCN(Cc2cc(F)cc(F)c2)CC1)C1CC1 (centres undefined) | 28.5%
99 | COCCN1CCOCC12CCN(C(=O)Cc1cccs1)CC2 | -6.94%
100 | CC1CCN(C(=O)[C@H]2C[C@@H]3CCN(CC4CCOCC4)C[C@@H]3O2)CC1 | -6.29%
101 | Cn1nc(COc2cncnc2)c2c1CCN(Cc1ccccn1)C2 | 6.46%
102 | Cn1nc(COc2cncnc2)c2c1CCN(Cc1ccco1)C2 | 6.82%
103 | CCS(=O)(=O)NC[C@]12COC[C@H]1CN(CCc1ccccc1)C2 | -5.39%
104 | CC(C)NC(=O)N1CC[C@@H](N(C)C)[C@@H]1Cc1ccccc1 | -10.3%
105 | Cc1noc(C)c1CNCC1COCc2c(-c3ccsc3)nnn2C1 (centres undefined) | -15.2%
106 | O=C(C[C@@H]1COC[C@H]2CN(CC3CCOCC3)C[C@@H]12)N1CCCCO1 | -8.58%
107 | CC(=O)N1CCC2(CC1)COC(COCc1ccccn1)C2 (centres undefined) | -1.84%
108 | O=C1[C@H]2CN(C3CCOCC3)C[C@H]2CN1Cc1cccc(F)c1 | 0.427%
109 | COCCN1CCC2(COCc3c(C)nc(N4CCOCC4)nc32)C1 (centres undefined) | -1.01%
110 | COc1ccc(C(=O)N2CC[C@@H]3[C@H](CC2)N(C)CCS3(=O)=O)cc1 | -7.15%
111 | CCS(=O)(=O)NC[C@]12COC[C@H]1CN(Cc1ccncc1)C2 | -5.02%
112 | CC(C)NC(=O)N1CC[C@@H](N(C)C)[C@@H]1Cc1ccncc1 | -6.16%
113 | CS(=O)(=O)N1CCC2(CCCN(Cc3ccccn3)C2)C1 (centres undefined) | 9.19%
114 | CN(Cc1cccnc1)C[C@@H]1OC[C@H]2CN(C(=O)C3CC3)CC[C@H]21 | -5.43%
